Measurements taken from patent publication US10344060B2 (priority 2013, dated 2019).
“And” between values parts separate entries of the source, which are not always exact repeats. Equal entries are not always repeated. Where two headings read alike, the source gives them in different places.

Tests used:
Assay in all cases: cell-based
[1] = molecular target: T1, hNav1.7 (Homo sapiens, UniProt Q15858)
[2] = molecular target: hNav1.5 (Homo sapiens, UniProt Q14524); conditions: read-out: IC50 (μM) Nav1.5
[3] = molecular target: T1, hNav1.7; format: cell-based; conditions: read-out: PX hNav1.7 Tonic IC50
[4] = molecular target: hNav1.4 (Homo sapiens, UniProt P35499); format: cell-based; conditions: Table 12
Sequence of hNav1.4 (P35499 whole entry): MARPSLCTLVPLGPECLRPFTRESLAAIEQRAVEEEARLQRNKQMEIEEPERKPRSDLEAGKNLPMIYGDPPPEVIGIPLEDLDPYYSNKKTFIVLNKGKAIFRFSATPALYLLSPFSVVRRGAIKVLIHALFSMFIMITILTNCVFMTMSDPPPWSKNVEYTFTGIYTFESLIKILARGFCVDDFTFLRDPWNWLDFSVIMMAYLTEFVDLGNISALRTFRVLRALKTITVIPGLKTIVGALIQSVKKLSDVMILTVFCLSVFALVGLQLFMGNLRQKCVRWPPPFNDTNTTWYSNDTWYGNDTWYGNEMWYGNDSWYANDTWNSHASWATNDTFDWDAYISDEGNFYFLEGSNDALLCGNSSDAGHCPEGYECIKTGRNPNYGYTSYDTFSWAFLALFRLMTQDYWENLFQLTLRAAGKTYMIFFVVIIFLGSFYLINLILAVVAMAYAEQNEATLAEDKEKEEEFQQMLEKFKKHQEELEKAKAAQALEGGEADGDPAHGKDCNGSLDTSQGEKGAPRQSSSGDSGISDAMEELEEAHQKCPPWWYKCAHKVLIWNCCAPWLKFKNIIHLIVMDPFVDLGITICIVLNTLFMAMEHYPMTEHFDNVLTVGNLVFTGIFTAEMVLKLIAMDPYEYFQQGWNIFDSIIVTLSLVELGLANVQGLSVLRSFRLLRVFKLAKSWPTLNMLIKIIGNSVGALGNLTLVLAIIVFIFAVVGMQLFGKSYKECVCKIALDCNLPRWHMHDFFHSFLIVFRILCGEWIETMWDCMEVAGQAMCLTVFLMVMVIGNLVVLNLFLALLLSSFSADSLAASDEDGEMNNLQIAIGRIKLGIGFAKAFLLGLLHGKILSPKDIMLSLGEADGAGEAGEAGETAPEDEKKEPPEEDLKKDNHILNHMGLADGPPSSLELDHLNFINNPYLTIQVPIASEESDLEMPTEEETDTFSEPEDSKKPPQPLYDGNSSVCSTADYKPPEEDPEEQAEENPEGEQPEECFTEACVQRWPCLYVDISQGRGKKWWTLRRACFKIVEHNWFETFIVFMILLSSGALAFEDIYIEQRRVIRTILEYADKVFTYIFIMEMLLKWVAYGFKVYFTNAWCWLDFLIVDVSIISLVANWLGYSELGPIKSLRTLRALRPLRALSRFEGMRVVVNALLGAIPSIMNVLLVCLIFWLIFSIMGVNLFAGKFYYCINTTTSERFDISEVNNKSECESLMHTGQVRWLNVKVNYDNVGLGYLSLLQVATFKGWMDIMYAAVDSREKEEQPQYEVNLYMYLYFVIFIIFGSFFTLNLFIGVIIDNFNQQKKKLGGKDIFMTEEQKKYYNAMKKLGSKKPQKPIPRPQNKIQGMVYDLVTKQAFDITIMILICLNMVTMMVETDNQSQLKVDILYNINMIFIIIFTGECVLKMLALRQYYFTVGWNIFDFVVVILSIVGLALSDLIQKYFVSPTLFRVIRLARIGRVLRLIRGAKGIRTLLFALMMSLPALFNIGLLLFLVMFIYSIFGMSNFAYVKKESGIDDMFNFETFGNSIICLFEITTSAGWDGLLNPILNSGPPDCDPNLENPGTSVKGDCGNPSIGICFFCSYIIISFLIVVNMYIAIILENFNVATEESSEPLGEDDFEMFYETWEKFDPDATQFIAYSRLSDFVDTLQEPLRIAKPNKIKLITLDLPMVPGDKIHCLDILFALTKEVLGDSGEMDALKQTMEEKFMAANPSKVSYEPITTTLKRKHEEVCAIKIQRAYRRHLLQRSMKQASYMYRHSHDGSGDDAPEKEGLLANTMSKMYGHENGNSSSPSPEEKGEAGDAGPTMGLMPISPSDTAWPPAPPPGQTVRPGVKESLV

[5] = molecular target: hNav1.6 (Homo sapiens, UniProt Q9UQD0); format: cell-based; conditions: Table 15; ratio of PX tonic IC50 values

T1 sequence (Q15858 whole entry): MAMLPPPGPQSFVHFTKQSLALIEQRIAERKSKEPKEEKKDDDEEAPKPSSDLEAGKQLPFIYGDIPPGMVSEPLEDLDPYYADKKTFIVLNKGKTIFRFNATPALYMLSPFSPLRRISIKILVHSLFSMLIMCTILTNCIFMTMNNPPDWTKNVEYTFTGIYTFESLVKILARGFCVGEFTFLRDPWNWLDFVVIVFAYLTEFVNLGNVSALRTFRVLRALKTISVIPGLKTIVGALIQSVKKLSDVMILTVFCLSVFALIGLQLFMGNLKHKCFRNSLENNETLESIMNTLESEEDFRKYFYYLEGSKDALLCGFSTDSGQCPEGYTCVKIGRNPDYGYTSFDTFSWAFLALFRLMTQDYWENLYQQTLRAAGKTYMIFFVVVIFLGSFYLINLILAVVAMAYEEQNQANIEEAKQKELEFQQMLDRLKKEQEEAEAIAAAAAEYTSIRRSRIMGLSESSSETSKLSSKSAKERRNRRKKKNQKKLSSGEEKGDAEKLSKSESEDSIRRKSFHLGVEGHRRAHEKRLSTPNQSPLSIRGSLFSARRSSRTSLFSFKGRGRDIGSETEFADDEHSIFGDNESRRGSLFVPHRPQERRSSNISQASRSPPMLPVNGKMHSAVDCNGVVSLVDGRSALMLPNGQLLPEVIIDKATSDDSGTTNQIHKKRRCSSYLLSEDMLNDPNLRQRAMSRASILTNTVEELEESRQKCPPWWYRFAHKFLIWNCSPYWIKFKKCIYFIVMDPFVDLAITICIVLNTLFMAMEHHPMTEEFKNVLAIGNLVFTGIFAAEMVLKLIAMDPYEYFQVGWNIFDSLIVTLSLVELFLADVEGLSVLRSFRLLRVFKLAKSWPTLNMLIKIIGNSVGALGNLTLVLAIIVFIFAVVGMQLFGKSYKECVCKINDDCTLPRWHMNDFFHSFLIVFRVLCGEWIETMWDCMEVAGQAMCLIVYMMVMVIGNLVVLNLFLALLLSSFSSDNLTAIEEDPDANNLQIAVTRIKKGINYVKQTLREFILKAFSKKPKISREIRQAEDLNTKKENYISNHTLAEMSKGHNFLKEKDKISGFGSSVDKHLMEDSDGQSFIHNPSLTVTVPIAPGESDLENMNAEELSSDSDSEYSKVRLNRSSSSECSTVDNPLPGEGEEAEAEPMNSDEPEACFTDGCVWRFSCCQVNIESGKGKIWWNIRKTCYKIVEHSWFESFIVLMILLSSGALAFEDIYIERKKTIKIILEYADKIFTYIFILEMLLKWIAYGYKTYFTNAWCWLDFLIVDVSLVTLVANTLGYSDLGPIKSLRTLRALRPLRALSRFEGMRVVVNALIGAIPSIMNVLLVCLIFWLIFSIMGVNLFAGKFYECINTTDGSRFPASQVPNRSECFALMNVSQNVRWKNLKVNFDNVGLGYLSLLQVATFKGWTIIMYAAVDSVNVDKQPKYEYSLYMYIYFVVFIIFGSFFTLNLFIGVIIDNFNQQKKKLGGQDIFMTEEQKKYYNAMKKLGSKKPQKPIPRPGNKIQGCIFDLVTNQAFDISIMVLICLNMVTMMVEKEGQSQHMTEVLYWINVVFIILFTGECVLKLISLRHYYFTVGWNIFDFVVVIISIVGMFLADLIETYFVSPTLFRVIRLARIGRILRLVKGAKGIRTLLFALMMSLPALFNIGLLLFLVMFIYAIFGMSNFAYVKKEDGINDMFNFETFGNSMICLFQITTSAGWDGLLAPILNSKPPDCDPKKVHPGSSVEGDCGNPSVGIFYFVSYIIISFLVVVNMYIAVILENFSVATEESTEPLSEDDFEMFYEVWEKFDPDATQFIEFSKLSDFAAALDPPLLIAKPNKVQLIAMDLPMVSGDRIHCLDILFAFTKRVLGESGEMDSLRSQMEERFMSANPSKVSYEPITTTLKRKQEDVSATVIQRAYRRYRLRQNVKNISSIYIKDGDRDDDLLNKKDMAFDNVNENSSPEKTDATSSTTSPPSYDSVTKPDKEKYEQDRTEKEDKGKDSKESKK

## CC[C@H](C)[C@H](NC(=O)[C@@H](NC(=O)[C@H](CCCCN)NC(=O)[C@H](CCCNC(=N)N)NC(=O)[C@@H]1CSSC[C@@H]2NC(=O)[C@H](C)NC(=O)[C@H](CCCNC(=N)N)NC(=O)[C@H](CCCCN)NC(=O)[C@H](CO)NC(=O)[C@H](CC(=O)O)NC(=O)[C@@H]3CSSC[C@H](NC(=O)[C@H](CCCNC(=N)N)NC(=O)[C@H](CC(C)C)NC(=O)CNC(=O)[C@H](CCC(=O)O)NC(=O)[C@H](CSSC[C@H](NC(=O)[C@@H](N)Cc4ccc(O)cc4)C(=O)N[C@@H](CCC(N)=O)C(=O)N[C@@H](CCCCN)C(=O)N[C@@H](Cc4c[nH]c5ccccc45)C(=O)N[C@@H](CCSC)C(=O)N[C@@H](Cc4c[nH]c5ccccc45)C(=O)N[C@@H]([C@@H](C)O)C(=O)N3)NC2=O)C(=O)N[C@@H](CCCCN)C(=O)N[C@@H](CC(C)C)C(=O)N[C@@H](Cc2c[nH]c3ccccc23)C(=O)N1)[C@@H](C)CC)C(=O)O [compound 1]
[1]; read-out: IC50 (μM) Nav1.7
  IC50: 0.17 µM
[2]; IonWorks Quattro, Table 6
  IC50: > 5 µM
[3]; PatchXpress, tonic, Table 11
  IC50: 13.1 nM

## CC[C@H](C)[C@H](NC(=O)CNC(=O)[C@H](CCCCN)NC(=O)[C@H](CCCNC(=N)N)NC(=O)[C@@H]1CSSC[C@@H]2NC(=O)[C@H](C)NC(=O)[C@H](CCCNC(=N)N)NC(=O)[C@H](CCCCN)NC(=O)[C@H](CO)NC(=O)[C@H](CC(=O)O)NC(=O)[C@@H]3CSSC[C@H](NC(=O)[C@H](CCC(=O)O)NC(=O)[C@H](CC(C)C)NC(=O)CNC(=O)[C@H](CCC(=O)O)NC(=O)[C@H](CSSC[C@H](NC(=O)[C@@H](N)Cc4ccc(O)cc4)C(=O)N[C@@H](CCC(N)=O)C(=O)N[C@@H](CCCCN)C(=O)N[C@@H](Cc4c[nH]c5ccccc45)C(=O)N[C@@H](CCSC)C(=O)N[C@@H](Cc4c[nH]c5ccccc45)C(=O)N[C@@H]([C@@H](C)O)C(=O)N3)NC2=O)C(=O)N[C@@H](CCCCN)C(=O)N[C@@H](CC(C)C)C(=O)N[C@@H](Cc2c[nH]c3ccccc23)C(=O)N1)C(N)=O [compound 134]
[1]; ratio of IonWorks Quattro IC50 values, Nav1.4 over Nav1.7
  Nav1.4/Nav1.7: 17 and 13
[2]
  IC50: 11.1 µM

## C#CC[C@H](N)C(=O)N[C@@H](Cc1ccc(O)cc1)C(=O)N[C@H]1CSSC[C@@H]2NC(=O)[C@@H]3CSSC[C@@H](C(=O)N[C@@H](CCCNC(=N)N)C(=O)N[C@@H](CCCCN)C(=O)N[C@@H](CCC(=O)O)C(=O)N[C@H](C(N)=O)[C@@H](C)CC)NC(=O)[C@H](Cc4c[nH]c5ccccc45)NC(=O)[C@H](CC(C)C)NC(=O)[C@H](CCCCN)NC(=O)[C@H](CSSC[C@H](NC(=O)[C@H]([C@@H](C)O)NC(=O)[C@H](Cc4c[nH]c5ccccc45)NC(=O)[C@H](CCCC)NC(=O)[C@H](CCc4ccccc4)NC(=O)[C@H](CCCCN)NC(=O)[C@H](CCC(N)=O)NC1=O)C(=O)N[C@@H](CC(=O)O)C(=O)N[C@@H](CO)C(=O)N[C@@H](CCCCN)C(=O)N[C@@H](CCCNC(=N)N)C(=O)N[C@@H](C)C(=O)N3)NC(=O)[C@H](CCCNC(=N)N)NC(=O)[C@H](CC(C)C)NC(=O)CNC(=O)[C@H](CCC(=O)O)NC2=O [compound 844]
[3]; Table 12, PatchXpress, tonic block
  IC50: 0.599 nM
[3]; Table 15
  IC50: 0.599 nM
[4]; PatchXpress, tonic block, read-out: PX hNav1.4 Tonic IC50
  IC50: 258 nM
[4]; ratio of PX tonic IC50 values
  Nav1.4/Nav1.7: 431
[5]
  Nav1.6/Nav1.7: 1666
